SMILES strings stand for the structures. ≈ marks a conversion by molar mass, not a printed value.

Results on 14 compounds are retold here after ChEMBL document CHEMBL4396865, “Current advances of triazole alcohols derived from fluconazole: Design, in vitro and in silico studies” (2019).

Assay type in all cases: functional
One assay relates to Pichia norvegensis. Kind of assay: Antifungal activity against Candida mycoderma.
For assay [1], the system named is Candida albicans. The assay can be described thus: Antifungal activity against Candida albicans. Conditions: Candida albicans; for MIC: read-out: MIC.
Assay [2] has as its system Candida parapsilosis. The assay can be described thus: Antifungal activity against fluconalzole-resistant Candida parapsilosis after 24 hrs. As to conditions: Lodderomyces parapsilosis.
For assay [3], the system named is Candida albicans. The assay can be described thus: Antifungal activity against fluconalzole-susceptible Candida albicans after 24 hrs.
Assay [4] concerns Candida albicans. Kind of assay: Antifungal activity against fluconalzole-resistant Candida albicans after 24 hrs.
Assay [5] relates to Candida parapsilosis. The assay can be described thus: Antifungal activity against fluconalzole-susceptible Candida parapsilosis after 24 hrs. As to conditions: Lodderomyces parapsilosis.
The test system of assay [6] is Candida albicans. The assay can be described thus: Antifungal activity against Candida albicans infected in Caenorhabditis elegans assessed as survival at 16 ug/ml relative to control.
The subject of assay [7] is Aspergillus fumigatus. The assay can be described thus: Antifungal activity against Aspergillus fumigatus after 24 hrs.
Assay [8] has as its system Candida albicans. Kind of assay: Antifungal activity against Candida albicans ATCC SC5314 after 24 hrs. As to conditions: ATCC SC5314, 24 h.
The test system of assay [9] is Candida parapsilosis. The assay can be described thus: Antifungal activity against Candida parapsilosis after 24 hrs. Conditions: Lodderomyces parapsilosis.
The subject of assay [10] is Trichophyton rubrum. The assay can be described thus: Antifungal activity against Trichophyton rubrum after 24 hrs.
Assay [11] deals with Nannizzia gypsea. Kind of assay: Antifungal activity against Microsporum gypseum after 24 hrs.
Assay [12] relates to Pichia kudriavzevii. Kind of assay: Antifungal activity against Candida krusei after 24 hrs.
Assay [13] has as its system Candida albicans. Kind of assay: Antifungal activity against Candida albicans Y0109 after 24 hrs. Conditions: Y0109, 24 h.
The test system of assay [14] is Cryptococcus neoformans. The assay can be described thus: Antifungal activity against Cryptococcus neoformans after 24 hrs.
For assay [15], the system named is Cryptococcus neoformans. Kind of assay: Potency index, ratio of fluconazole MIC to test compound MIC for Cryptococcus neoformans infected in Caenorhabditis elegans.
In assay [16] the test system is Cryptococcus neoformans. Kind of assay: Antifungal activity against Cryptococcus neoformans infected in Caenorhabditis elegans.
Assay [17] relates to Candida albicans. Kind of assay: Antifungal activity against Candida albicans after 24 hrs by NCCLS protocol based method.
For assay [18], the system named is Candida parapsilosis. Kind of assay: Antifungal activity against Candida parapsilosis. Conditions: Lodderomyces parapsilosis.
In assay [19] the test system is Trichophyton rubrum. Kind of assay: Antifungal activity against Trichophyton rubrum after 24 hrs by microbroth dilution method.
Assay [20] concerns Candida tropicalis. The assay can be described thus: Antifungal activity against Candida tropicalis after 24 hrs by microbroth dilution method. On the technique in general: In broth dilution the organism is exposed to a series of concentrations in liquid medium.
The subject of assay [21] is Cryptococcus neoformans. Kind of assay: Antifungal activity against Cryptococcus neoformans. Conditions: Cryptococcus neoformans.
The subject of assay [22] is Candida tropicalis. Kind of assay: Antifungal activity against Candida tropicalis after 24 hrs by NCCLS protocol based method.
In assay [23] the test system is Candida tropicalis. The assay can be described thus: Antifungal activity against Candida tropicalis. Conditions: Candida tropicalis; read-out: MIC.
Assay [24] has as its system Aspergillus fumigatus. The assay can be described thus: Antifungal activity against Aspergillus fumigatus. Conditions: Aspergillus fumigatus.
Assay [25] relates to Cryptococcus neoformans. The assay can be described thus: Antifungal activity against Cryptococcus neoformans after 72 hrs by NCCLS protocol based method.
For assay [26], the system named is Trichophyton rubrum. The assay can be described thus: Antifungal activity against Trichophyton rubrum. As to conditions: Trichophyton rubrum; read-out: MIC.
The next assay deals with Fonsecaea compacta. Kind of assay: Antifungal activity against Fonsecaea compacta after 24 hrs by microbroth dilution method.
For the next assay, the system named is Microsporum canis. Kind of assay: Antifungal activity against Microsporum canis after 24 hrs by microbroth dilution method.
A further assay relates to Kluyveromyces marxianus. Kind of assay: Antifungal activity against Candida kefyr. As to conditions: Kluyveromyces marxianus; read-out: MIC.
In assay [27] the test system is Candida albicans. The assay can be described thus: Antifungal activity against Candida albicans infected in Caenorhabditis elegans assessed as survival at 32 ug/ml relative to control.
Assay [28] has as its system Trichophyton rubrum. Kind of assay: Antifungal activity against Trichophyton rubrum after 7 days by NCCLS protocol based method. Conditions: 168 h.
For assay [29], the system named is Nannizzia gypsea. Kind of assay: Antifungal activity against Microsporum gypseum after 7 days by NCCLS protocol based method. Conditions: 168 h.
The test system of assay [30] is Aspergillus fumigatus. The assay can be described thus: Antifungal activity against Aspergillus fumigatus after 24 hrs by microbroth dilution method.
Assay [31] has as its system Candida albicans. The assay can be described thus: Antifungal activity against Candida albicans after 48 hrs by NCCLS protocol based method.
The test system of assay [32] is Candida parapsilosis. Kind of assay: Antifungal activity against Candida parapsilosis after 48 hrs by NCCLS protocol based method. As to conditions: Lodderomyces parapsilosis.
Assay [33] relates to Nannizzia gypsea. Kind of assay: Potency index, ratio of fluconazole MIC80 to test compound MIC80 for Microsporum gypseum.
In assay [34] the test system is Trichophyton rubrum. Kind of assay: Potency index, ratio of fluconazole MIC80 to test compound MIC80 for Trichophyton rubrum.
Assay [35] concerns Candida albicans. The assay can be described thus: Potency index, ratio of fluconazole MIC to test compound MIC for Candida albicans.
Assay [36] concerns Pichia kudriavzevii. The assay can be described thus: Antifungal activity against Candida krusei.
Assay [37] has as its system Pichia kudriavzevii. Kind of assay: Potency index, ratio of fluconazole MIC to test compound MIC for Candida krusei.

For orientation: MIC means the lowest concentration found to suppress growth. Consider `O=C(O)c1cn(C2CC2)c2c(Cl)c(N3CCC(NCC(O)(Cn4cncn4)c4ccc(F)cc4F)C3)c(F)cc2c1=O` (configuration not stated), for which the MIC in the assay with Pichia norvegensis and with Candida albicans [1] was 0.25 to 2 µg/mL (≈ 0.415 to 3.32 µM) in each case.

With `OC(Cn1cncn1)(Cn1cnc(SCc2cccc(Cl)c2)n1)c1ccc(F)cc1F` (configuration not stated), the minimum inhibitory concentration (MIC) was 0.125 to 16 µg/mL (≈ 0.27 to 34.6 µM) in the assay with Candida parapsilosis [2], 0.063 to 1 µg/mL (≈ 0.136 to 2.16 µM) against Candida albicans [3], 0.125 to 16 µg/mL (≈ 0.27 to 34.6 µM) in the assay with Candida albicans [4] and 0.063 to 1 µg/mL (≈ 0.136 to 2.16 µM) against Candida parapsilosis [5].

On to `OC(Cn1cncn1)(Cn1cc(C2CC2)nn1)c1ccc(F)cc1F` (configuration not stated), for which the MIC with Candida albicans [1] amounted to 0.125 µg/mL (≈ 0.361 µM). The survival at 16 µg/mL with Candida albicans [6] came out at 70%.

As for `OC(Cc1cn(CCOCc2ccc(Br)cc2)nn1)(Cn1cncn1)c1ccc(F)cc1F` (configuration not stated), the MIC against Aspergillus fumigatus [7], in the assay with Candida albicans [8], in the assay on Candida parapsilosis [9], in the assay with Trichophyton rubrum [10], in the assay on Nannizzia gypsea [11] and in the assay with Pichia kudriavzevii [12] was 0.0156 to 0.0625 µg/mL (≈ 0.03 to 0.12 µM) throughout. For the same compound, the MIC in the assay with Candida albicans [13] and in the assay on Cryptococcus neoformans [14] was 0.0156 to 0.0625 µg/mL (≈ 0.03 to 0.12 µM) in each case.

As for `OC(Cc1cn(C2CCCC2)nn1)(Cn1cncn1)c1ccc(F)cc1F` (configuration not stated), the Ratio in the assay with Cryptococcus neoformans [15] is 8. Further, in the assay with Cryptococcus neoformans [16], the MIC was 0.25 µg/mL (≈ 0.668 µM).

As a reminder, the MIC80 is an inhibitory concentration at the 80% level, which refers to growth in some studies and to a panel of isolates in others. A high value points to lower susceptibility. On to `OC(Cn1cncn1)(Cn1cncn1)c1ccc(F)cc1F` [FLUCONAZOLE], for which the MIC in the assay on Candida albicans [17] was 0.5 µg/mL (≈ 1.63 µM); against Aspergillus fumigatus [7] it was at least 64 µg/mL; in the assay with Candida albicans [8], at least 64 µg/mL; in the assay on Candida parapsilosis [18] (read-out: MIC) it was 1 µg/mL (≈ 3.27 µM); against Candida parapsilosis [9], at least 64 µg/mL; in the assay with Cryptococcus neoformans [21] (read-out: MIC), 1 µg/mL (≈ 3.27 µM). Moreover, the MIC is 0.5 µg/mL (≈ 1.63 µM) against Candida tropicalis [22]; 0.125 to 8 µg/mL (≈ 0.408 to 26.1 µM) with Candida tropicalis [23]; at least 64 µg/mL with Trichophyton rubrum [10]; 0.5 µg/mL (≈ 1.63 µM) in the assay on Candida albicans [1]; 0.5 µg/mL (≈ 1.63 µM) against Cryptococcus neoformans [25]; 0.125 to 8 µg/mL (≈ 0.408 to 26.1 µM) with Trichophyton rubrum [26]. The MIC in the assay with Candida albicans [3] was 0.5 to 4 µg/mL (≈ 1.63 to 13.1 µM); in the assay with Kluyveromyces marxianus it was 0.125 to 8 µg/mL (≈ 0.408 to 26.1 µM); in the assay on Candida parapsilosis [5], 0.5 to 4 µg/mL (≈ 1.63 to 13.1 µM); with Nannizzia gypsea [11] it was at least 64 µg/mL; against Pichia kudriavzevii [12] it was at least 64 µg/mL; against Trichophyton rubrum [28], 0.5 µg/mL (≈ 1.63 µM). The MIC was 0.5 µg/mL (≈ 1.63 µM) in the assay with Nannizzia gypsea [29], at least 64 µg/mL in the assay with Candida albicans [13] and at least 64 µg/mL against Cryptococcus neoformans [14]. The MIC80 against Trichophyton rubrum [19] is at least 0.5 µg/mL; in the assay on Candida tropicalis [20] it was at least 0.5 µg/mL; in the assay on Aspergillus fumigatus [24], over 200 µM; with Fonsecaea compacta, at least 0.5 µg/mL; in the assay with Microsporum canis it was at least 0.5 µg/mL; in the assay with Aspergillus fumigatus [30], at least 0.5 µg/mL. Further, in the assay with Candida albicans [27], the survival at 32 µg/mL worked out at 60%.

For the compound `C[C@H](CCCn1cc(CC(O)(Cn2cncn2)c2ccc(F)cc2F)nn1)[C@H]1CC[C@H]2[C@@H]3[C@H](O)C[C@@H]4C[C@H](O)CC[C@]4(C)[C@H]3C[C@H](O)[C@]12C` (some centres not stated), the MIC in the assay on Candida albicans [31] and against Candida parapsilosis [32] was 3.12 to 6.25 µg/mL (≈ 4.57 to 9.15 µM) throughout.

Consider `O=C(O)c1cn(C2CC2)c2c(Cl)c(N3CCC(NCC(O)(Cn4cncn4)c4ccc(F)cc4)C3)c(F)cc2c1=O` (configuration not stated), for which the minimal inhibitory concentration (MIC) in the assay on Pichia norvegensis and with Candida albicans [1] was 0.25 to 2 µg/mL (≈ 0.427 to 3.42 µM) each time.

As to `COC(=O)CC[C@@H](C)[C@H]1CC[C@H]2[C@@H]3CC[C@@H]4C[C@@H](n5cc(CC(O)(Cn6cncn6)c6ccc(F)cc6F)nn5)CC[C@]4(C)[C@H]3C[C@H](O)[C@]12C` (some centres not stated), the MIC against Candida albicans [31] and in the assay with Candida parapsilosis [32] was 3.12 to 6.25 µg/mL (≈ 4.49 to 8.99 µM) throughout.

On to `O=C(O)c1cn(C2CC2)c2c(Cl)c(N3CCC(NCC(O)(Cn4cncn4)c4ccc(F)c(F)c4)C3)c(F)cc2c1=O` (configuration not stated), for which the MIC against Pichia norvegensis and in the assay on Candida albicans [1] was 0.25 to 2 µg/mL (≈ 0.415 to 3.32 µM) in each case.

As for `COC(=O)CC[C@@H](C)[C@H]1CC[C@H]2[C@@H]3[C@H](O)C[C@@H]4C[C@@H](n5cc(CC(O)(Cn6cncn6)c6ccc(F)cc6F)nn5)CC[C@]4(C)[C@H]3C[C@H](O)[C@]12C` (some centres not stated), the MIC against Candida albicans [31] and against Candida parapsilosis [32] was 3.12 to 6.25 µg/mL (≈ 4.39 to 8.79 µM) each time.

Take `O=C(O)c1cn(C2CC2)c2c(Cl)c(N3CCC(NCC(O)(Cn4cncn4)c4ccc(Cl)c(Cl)c4)C3)c(F)cc2c1=O` (configuration not stated): the minimal inhibitory concentration (MIC) against Pichia norvegensis and in the assay with Candida albicans [1] was 0.25 to 2 µg/mL (≈ 0.393 to 3.15 µM) each time.

`OC(CN1CCN(Cc2cn(Cc3ccc(Br)cc3)nn2)CC1)(Cn1cncn1)c1ccc(F)cc1F` (configuration not stated): the MIC80 against Candida parapsilosis [18], with Cryptococcus neoformans [21] and in the assay on Candida albicans [1] was at most 0.5 µg/mL each time. Moreover, the Ratio in the assay with Nannizzia gypsea [33] and in the assay on Trichophyton rubrum [34] was 4 - 128 each time.

With `C#CCN(Cc1ccc(F)cc1F)CC(O)(Cn1cncn1)c1ccc(F)cc1F` (configuration not stated), the MIC80 with Candida albicans [1] and in the assay with Pichia kudriavzevii [36] was 0.00097 µg/mL (≈ 0.00232 µM) in each case. The Ratio in the assay with Candida albicans [35] was 515; with Pichia kudriavzevii [37] it was 64.
